Data reported in ChEMBL document CHEMBL5046281, “N-Aryl Mercaptopropionamides as Broad-Spectrum Inhibitors of Metallo-β-Lactamases” (J Med Chem, 2022).
≈ marks a conversion by molar mass, not a printed value. Calls of active or inactive are those of the source. The rule behind the calls is not given here.

Experiments:
[1] = Lipophilicity, log D of the compound at pH 7.4 by HPLC-MS analysis; type: physicochemical; conditions: buffer
BlaVIM-1 = BlaVIM-1 (Escherichia coli, UniProt Q8GDC1); assay: Inhibition of Escherichia coli VIM-1 using fluorocillin as substrate incubated for 30 mins by fluorescence based assay
[2] = Inhibition of Escherichia coli NDM-1 using fluorocillin as substrate incubated for 30 mins by fluorescence based assay
[3] = Inhibition of Escherichia coli IMP-7 using fluorocillin as substrate incubated for 30 mins by fluorescence based assay
[4] = target: Disintegrin and metalloproteinase domain-containing protein 17 (Homo sapiens) (UniProt P78536); assay: Inhibition of human TACE at 100 uM relative to control
[5] = target: Neutrophil collagenase (Homo sapiens) (UniProt P22894); assay: Inhibition of human MMP-8 at 100 uM relative to control
Pseudomonas aeruginosa [6] = assay: Antibacterial activity against VIM-2 expressing Pseudomonas aeruginosa isolates assessed as inhibition of bacterial growth by microdilution method; type: functional, organism-based
[7] = target: Stromelysin-1 (Homo sapiens) (UniProt P08254); assay: Inhibition of human MMP-3 at 100 uM relative to control
[8] = target: T1, Matrix metalloproteinase-14 (Homo sapiens, UniProt P50281); assay: Inhibition of human MMP-14 at 100 uM relative to control
[9] = target: T2, 72 kDa type IV collagenase (Homo sapiens, UniProt P08253); assay: Inhibition of human MMP-2 at 100 uM relative to control
Target sequence in this assay (P08253 110-660 limits assumed): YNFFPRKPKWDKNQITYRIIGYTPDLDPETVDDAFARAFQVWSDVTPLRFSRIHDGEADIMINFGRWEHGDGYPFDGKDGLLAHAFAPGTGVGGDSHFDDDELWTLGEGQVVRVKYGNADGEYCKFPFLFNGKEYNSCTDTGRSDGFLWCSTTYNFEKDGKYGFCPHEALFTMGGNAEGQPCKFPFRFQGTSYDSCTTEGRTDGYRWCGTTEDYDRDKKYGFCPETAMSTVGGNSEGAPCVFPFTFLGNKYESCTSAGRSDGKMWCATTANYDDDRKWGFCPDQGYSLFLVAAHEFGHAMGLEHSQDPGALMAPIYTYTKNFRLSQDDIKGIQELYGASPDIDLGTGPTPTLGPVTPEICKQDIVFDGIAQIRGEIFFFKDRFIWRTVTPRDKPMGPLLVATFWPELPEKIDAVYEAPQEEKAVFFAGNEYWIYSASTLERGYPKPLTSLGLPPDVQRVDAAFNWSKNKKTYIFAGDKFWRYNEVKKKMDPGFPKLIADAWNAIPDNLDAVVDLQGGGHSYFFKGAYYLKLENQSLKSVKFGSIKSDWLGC

[10] = Toxicity in zebrafish embryo assessed as maximum tolerated concentration measured up to 120 hrs; parameters: species or system Danio rerio; conditions: in vivo, read-out: MTC
Escherichia coli [11] = assay: Antibacterial activity against NDM-1 expressing Escherichia coli isolates assessed as inhibition of bacterial growth by microdilution method; type: functional, organism-based
HEK293 = assay: Cytotoxicity against human HEK293 cells assessed as reduction in cell viability at 100 uM relative to control; type: toxicity, cell-based; conditions: hek293, 100 µM
HepG2 = assay: Cytotoxicity against human HepG2 cells assessed as reduction in cell viability at 100 uM relative to control; type: toxicity, cell-based; conditions: hepg2, 100 µM
[12] = target: T1, Matrix metalloproteinase-14; assay: Inhibition of human MMP-14
Escherichia coli [13] = assay: Antibacterial activity against IMP-1 expressing Escherichia coli isolates assessed as inhibition of bacterial growth by microdilution method; type: functional, organism-based
Escherichia coli [14] = assay: Antibacterial activity against VIM-1 expressing Escherichia coli isolates assessed as inhibition of bacterial growth by microdilution method; type: functional, organism-based
[15] = target: T3, Interstitial collagenase (Homo sapiens) (UniProt P03956); assay: Inhibition of human MMP-1 at 100 uM relative to control
T3 sequence (whole entry): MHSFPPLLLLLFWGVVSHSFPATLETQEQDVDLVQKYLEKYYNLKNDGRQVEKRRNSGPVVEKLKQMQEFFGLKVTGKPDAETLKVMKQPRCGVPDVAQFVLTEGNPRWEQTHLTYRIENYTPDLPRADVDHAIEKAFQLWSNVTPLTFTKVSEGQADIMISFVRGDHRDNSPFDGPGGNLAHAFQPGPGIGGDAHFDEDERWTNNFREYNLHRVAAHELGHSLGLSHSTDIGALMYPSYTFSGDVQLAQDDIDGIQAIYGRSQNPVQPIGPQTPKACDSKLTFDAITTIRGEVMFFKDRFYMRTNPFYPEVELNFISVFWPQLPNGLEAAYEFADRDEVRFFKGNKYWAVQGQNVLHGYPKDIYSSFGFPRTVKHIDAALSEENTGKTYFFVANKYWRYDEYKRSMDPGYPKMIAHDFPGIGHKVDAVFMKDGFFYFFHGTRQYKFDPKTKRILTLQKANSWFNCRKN

[16] = target: T4, Matrilysin (Homo sapiens) (UniProt P09237); assay: Inhibition of human MMP-7 at 100 uM relative to control
T4 sequence (whole entry): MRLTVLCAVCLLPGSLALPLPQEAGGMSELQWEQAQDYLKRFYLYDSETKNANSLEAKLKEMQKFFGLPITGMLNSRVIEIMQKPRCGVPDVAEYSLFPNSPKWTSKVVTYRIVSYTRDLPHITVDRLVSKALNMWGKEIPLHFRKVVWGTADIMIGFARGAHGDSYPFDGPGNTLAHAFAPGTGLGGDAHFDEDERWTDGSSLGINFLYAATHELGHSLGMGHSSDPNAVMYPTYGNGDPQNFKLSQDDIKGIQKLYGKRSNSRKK

A549 = assay: Cytotoxicity against human A549 cells assessed as reduction in cell viability at 100 uM relative to control; type: toxicity, cell-based; conditions: a549, 100 µM
[17] = target: T2, 72 kDa type IV collagenase; assay: Inhibition of human MMP-2
Target sequence in this assay (P08253 whole entry): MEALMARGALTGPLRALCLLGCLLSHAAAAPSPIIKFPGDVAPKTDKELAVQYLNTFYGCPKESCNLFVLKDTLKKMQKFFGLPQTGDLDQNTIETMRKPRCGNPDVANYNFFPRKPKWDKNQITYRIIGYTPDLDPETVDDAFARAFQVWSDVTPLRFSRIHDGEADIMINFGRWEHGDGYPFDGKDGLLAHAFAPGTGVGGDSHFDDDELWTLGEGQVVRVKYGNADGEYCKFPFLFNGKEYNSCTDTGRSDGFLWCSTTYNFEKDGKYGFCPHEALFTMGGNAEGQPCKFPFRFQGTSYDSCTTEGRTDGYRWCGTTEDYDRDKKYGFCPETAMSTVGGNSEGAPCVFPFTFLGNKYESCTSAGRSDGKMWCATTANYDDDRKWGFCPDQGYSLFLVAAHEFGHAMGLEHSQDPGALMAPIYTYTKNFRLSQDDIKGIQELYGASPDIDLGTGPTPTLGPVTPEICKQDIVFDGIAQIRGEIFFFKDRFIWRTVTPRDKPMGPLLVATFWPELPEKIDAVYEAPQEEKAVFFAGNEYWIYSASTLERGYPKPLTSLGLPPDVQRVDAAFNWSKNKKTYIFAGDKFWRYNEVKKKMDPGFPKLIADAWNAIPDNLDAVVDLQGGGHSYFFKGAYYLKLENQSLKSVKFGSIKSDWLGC

Pseudomonas aeruginosa [18] = assay: Inhibition of Pseudomonas aeruginosa quorum sensing system LasB at 100 uM
Enterobacter cloacae [19] = assay: Antibacterial activity against NDM-1 producing Enterobacter cloacae T2311 clinical isolates assessed as inhibition of bacterial growth by microdilution method; type: functional
Klebsiella pneumoniae [20] = assay: Antibacterial activity against imipenem-resistant NDM-1-producing Klebsiella pneumoniae T2301 infected in Galleria mellonella larvae assessed as survival rate at 0.12 ug injected via proleg measured after 3 days by Kaplan-Meier method; type: functional; conditions: dose 0.12 µg; time 3 day
Escherichia coli [21] = assay: Antibacterial activity against KPC-2 producing Escherichia coli T2435 clinical isolates assessed as inhibition of bacterial growth by microdilution method; type: functional
Serratia marcescens = assay: Antibacterial activity against NDM-1 producing Serratia marcescens T2352 clinical isolates assessed as inhibition of bacterial growth by microdilution method; type: functional
Pseudomonas aeruginosa [22] = assay: Antibacterial activity against VIM-1 producing Pseudomonas aeruginosa T2357 clinical isolates assessed as inhibition of bacterial growth by microdilution method; type: functional
Enterobacter cloacae [23] = assay: Antibacterial activity against VIM-1 producing Enterobacter cloacae T2353 clinical isolates assessed as inhibition of bacterial growth by microdilution method; type: functional
Enterobacter cloacae [24] = assay: Antibacterial activity against GIM-1 producing Enterobacter cloacae T2218 clinical isolates assessed as inhibition of bacterial growth by microdilution method; type: functional
Acinetobacter baumannii = assay: Antibacterial activity against OXA-23 producing Acinetobacter baumannii T2434 clinical isolates assessed as inhibition of bacterial growth by microdilution method; type: functional
Escherichia coli [25] = assay: Antibacterial activity against NDM-7 producing Escherichia coli T2239 clinical isolates assessed as inhibition of bacterial growth by microdilution method; type: functional
Escherichia coli [26] = assay: Antibacterial activity against NDM-5 producing Escherichia coli T2351 clinical isolates assessed as inhibition of bacterial growth by microdilution method
Pseudomonas aeruginosa [27] = assay: Antibacterial activity against IMP-1 producing Pseudomonas aeruginosa T2325 clinical isolates assessed as inhibition of bacterial growth by microdilution method
Klebsiella pneumoniae [28] = assay: Antibacterial activity against NDM-1 producing Klebsiella pneumoniae T2301 clinical isolates assessed as inhibition of bacterial growth by microdilution method; type: functional

Chain of Disintegrin and metalloproteinase domain-containing protein 17 (Homo sapiens) (P78536 whole entry, the tested form may be a part): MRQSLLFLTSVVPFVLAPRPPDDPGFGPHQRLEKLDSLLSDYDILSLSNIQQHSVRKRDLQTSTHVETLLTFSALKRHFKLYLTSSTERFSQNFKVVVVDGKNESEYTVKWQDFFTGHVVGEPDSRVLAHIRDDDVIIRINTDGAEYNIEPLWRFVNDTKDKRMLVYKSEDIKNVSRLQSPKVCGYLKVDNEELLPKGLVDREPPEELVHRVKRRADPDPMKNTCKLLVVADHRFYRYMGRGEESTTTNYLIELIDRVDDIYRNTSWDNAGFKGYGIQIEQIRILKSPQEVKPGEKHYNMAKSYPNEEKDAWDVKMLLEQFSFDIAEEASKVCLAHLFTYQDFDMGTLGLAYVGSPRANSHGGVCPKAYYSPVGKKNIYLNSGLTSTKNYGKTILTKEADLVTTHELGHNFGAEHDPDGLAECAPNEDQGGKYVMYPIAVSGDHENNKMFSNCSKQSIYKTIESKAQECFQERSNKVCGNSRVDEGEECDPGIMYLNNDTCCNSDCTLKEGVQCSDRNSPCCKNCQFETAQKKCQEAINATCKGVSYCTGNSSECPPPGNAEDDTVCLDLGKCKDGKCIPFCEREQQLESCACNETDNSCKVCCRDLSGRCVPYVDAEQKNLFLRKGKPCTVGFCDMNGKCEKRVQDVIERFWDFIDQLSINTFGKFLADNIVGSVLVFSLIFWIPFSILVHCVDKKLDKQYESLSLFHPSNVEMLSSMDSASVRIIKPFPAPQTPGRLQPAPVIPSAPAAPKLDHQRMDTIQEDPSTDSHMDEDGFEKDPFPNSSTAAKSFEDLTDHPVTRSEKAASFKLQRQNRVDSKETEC
Chain of Neutrophil collagenase (Homo sapiens) (P22894 101-467 limits assumed): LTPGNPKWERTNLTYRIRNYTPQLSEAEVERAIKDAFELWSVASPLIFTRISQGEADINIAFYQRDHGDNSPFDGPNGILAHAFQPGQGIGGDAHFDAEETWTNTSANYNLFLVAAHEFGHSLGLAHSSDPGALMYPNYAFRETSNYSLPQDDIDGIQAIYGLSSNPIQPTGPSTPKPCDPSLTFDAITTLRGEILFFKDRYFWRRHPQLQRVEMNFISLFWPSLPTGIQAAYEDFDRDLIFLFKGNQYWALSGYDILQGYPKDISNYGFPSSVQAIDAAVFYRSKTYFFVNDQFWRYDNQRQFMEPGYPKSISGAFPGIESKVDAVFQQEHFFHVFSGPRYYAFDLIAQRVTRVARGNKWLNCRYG
Chain of Stromelysin-1 (Homo sapiens) (P08254 100-477 limits assumed): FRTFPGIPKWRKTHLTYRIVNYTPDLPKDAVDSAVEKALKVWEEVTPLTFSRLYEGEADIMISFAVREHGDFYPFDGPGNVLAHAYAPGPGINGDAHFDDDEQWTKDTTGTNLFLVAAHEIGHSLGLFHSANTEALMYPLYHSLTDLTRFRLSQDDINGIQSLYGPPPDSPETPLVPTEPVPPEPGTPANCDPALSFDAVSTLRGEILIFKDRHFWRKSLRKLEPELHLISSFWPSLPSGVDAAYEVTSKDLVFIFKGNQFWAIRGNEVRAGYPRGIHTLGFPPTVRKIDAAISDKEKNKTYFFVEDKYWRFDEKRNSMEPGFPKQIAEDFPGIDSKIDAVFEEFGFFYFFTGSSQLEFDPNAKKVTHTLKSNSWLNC

logD [1]	IC50 (BlaVIM-1)	IC50 [2]	IC50 [3]	SMILES	Activity (Pseudomonas aeruginosa [6])	Activity (Escherichia coli [11])	Activity (Escherichia coli [13])	Activity (Escherichia coli [14])	further results
1.35	0.4 µM	1.5 µM	5.5 µM	CC(=O)c1ccc(NC(=O)CCS)cc1					
1.14	0.2 µM	2.2 µM	3.3 µM	O=C(CCS)Nc1ccccc1O					
1.95	0.1 µM	2.8 µM	1.1 µM	COC(=O)c1ccc(NC(=O)CCS)cc1					inhibition (Pseudomonas aeruginosa [18]): Active
0.41	0.1 µM	2.7 µM	1.4 µM	O=C(CCS)Nc1cccc(O)c1					
-1.65	0.6 µM	1 µM	> 10 µM	O=C(CCS)Nc1ccc(C(=O)O)cc1					
1.95	10 µM	1.3 µM	1 µM	COC(=O)c1ccccc1NC(=O)CCS					
0.28	1 µM	5.5 µM	5.1 µM	NCc1cccc(NC(=O)CCS)c1	inactive	inactive	inactive	inactive	
0.24	0.8 µM	6.5 µM	5.5 µM	CCN(CC)Cc1cccc(NC(=O)CCS)c1					
-0.31	0.5 µM	6.5 µM	2.1 µM	Nc1ccc(NC(=O)CCS)cc1					
0.62	1.3 µM	2.2 µM		CS(=O)(=O)Nc1cccc(NC(=O)CCS)c1					
0.32	0.2 µM	4 µM	3.4 µM	O=C(CCS)Nc1ccc(O)cc1					
1.52	1.7 µM	2.5 µM	7.1 µM	O=C(CCS)Nc1ccc(S(=O)(=O)N2CCOCC2)cc1					
				C[C@@H](O)[C@H]1C(=O)N2C(C(=O)O)=C(SCCNC=N)C[C@H]12 [IMIPENEM ANHYDROUS]					MIC (Enterobacter cloacae [19]): 8 µg/mL (≈ 26.7 µM); Activity (Klebsiella pneumoniae [20]): <=25%; MIC (Escherichia coli [21]): 4 µg/mL (≈ 13.4 µM); MIC (Serratia marcescens): 256 µg/mL (≈ 855 µM); MIC (Pseudomonas aeruginosa [22]): 256 µg/mL (≈ 855 µM); MIC (Enterobacter cloacae [23]): 4 µg/mL (≈ 13.4 µM); MIC (Enterobacter cloacae [24]): 2 µg/mL (≈ 6.68 µM); MIC (Acinetobacter baumannii): 32 µg/mL (≈ 107 µM); MIC (Escherichia coli [25]): 32 µg/mL (≈ 107 µM); MIC (Escherichia coli [26]): 8 µg/mL (≈ 26.7 µM); MIC (Pseudomonas aeruginosa [27]): 16 µg/mL (≈ 53.4 µM); MIC (Klebsiella pneumoniae [28]): 16 µg/mL (≈ 53.4 µM)
1.7	0.8 µM	2.8 µM	2.1 µM	CN(C)S(=O)(=O)c1ccc(NC(=O)CCS)cc1	inactive	inactive	inactive	inactive	
1.1	1.9 µM	7 µM	> 10 µM	CS(=O)(=O)Nc1ccccc1NC(=O)CCS					
0.49	0.9 µM	0.7 µM	4.6 µM	O=C(O)[C@H]1CCCCN1C(=O)C(CS)Cc1ccccc1 (stereo not given in full)					
2.21	0.1 µM	2.5 µM	2.6 µM	O=C(CCS)Nc1cccc([N+](=O)[O-])c1					
0.28	1.5 µM	6.4 µM	5.8 µM	CN1CCN(Cc2ccc(NC(=O)CCS)cc2)CC1					
-1.35	1.6 µM	1.3 µM	3.6 µM	O=C(CCS)Nc1cccc(S(=O)(=O)O)c1	inactive	inactive	inactive	inactive	
5.34	0.1 µM	1.3 µM	5 µM	O=C(CCS)Nc1ccc(Cl)c(Cl)c1	inactive	inactive	inactive	inactive	inhibition [5]: 22%; inhibition [7]: < 10%; inhibition [8]: 18%; inhibition [9]: 14%; inhibition (Pseudomonas aeruginosa [18]): Active; Activity (HEK293): < 10%; Activity (HepG2): < 10%; inhibition [15]: < 10%; inhibition [16]: < 10%; Activity (A549): < 10%

SMILES	logD [1]	IC50 (BlaVIM-1)	IC50 [2]	IC50 [3]	Activity (Pseudomonas aeruginosa [6])	Activity (Escherichia coli [11])	Activity (Escherichia coli [13])	Activity (Escherichia coli [14])	further results
O=C(CCS)Nc1ccccc1C(=O)O	-0.92	2.2 µM	3.4 µM	4.1 µM	inactive	inactive	inactive	inactive	inhibition [4]: < 10%; inhibition [5]: < 10%; inhibition [7]: 17%; inhibition [8]: 77%; inhibition [9]: < 10%; MNTC at 120 h [10]: ≥ 150 µM; Activity (HEK293): < 10%; Activity (HepG2): < 10%; IC50 [12]: 12 µM; inhibition [15]: < 10%; inhibition [16]: 11%; Activity (A549): < 10%
NC(=O)NS(=O)(=O)c1ccc(NC(=O)CCS)cc1	-1.69	2 µM	8.6 µM	12.6 µM	inactive	inactive	inactive	inactive	inhibition [4]: < 10%; inhibition [5]: < 10%; inhibition [7]: < 10%; inhibition [8]: 73%; inhibition [9]: 88%; IC50 [17]: 64 µM; MNTC at 120 h [10]: ≥ 150 µM; inhibition (Pseudomonas aeruginosa [18]): Active; Activity (HEK293): < 10%; Activity (HepG2): < 10%; IC50 [12]: 31 µM; inhibition [15]: < 10%; inhibition [16]: 32%; Activity (A549): < 10%
N=C(N)NS(=O)(=O)c1ccc(NC(=O)CCS)cc1	-0.5	0.5 µM	2.1 µM	3.3 µM	inactive	inactive	inactive	inactive	inhibition [4]: 32%; inhibition [5]: < 10%; inhibition [7]: < 10%; inhibition [8]: < 10%; inhibition [9]: < 10%; MNTC at 120 h [10]: ≥ 150 µM; Activity (HEK293): < 10%; Activity (HepG2): < 10%; inhibition [15]: < 10%; inhibition [16]: < 10%; Activity (A549): < 10%
